These are literature values, as cited in patent publication US11504327B1, “Method of preparing nanoparticles by hot-melt extrusion” (priority 2019, dated 2022).

For this data set the following is noted: polyethoxylated oleyl alcohols; Walters et al. 1993.

oleth-2: the “permeation enhancement of ibuprofen across human skin” value is on record as “most effective permeation enhancer”.
oleth-20: the “permeation enhancement of ibuprofen across human skin” value is listed as “worst”.
